Assay [1] can be described thus: Cytotoxicity against human HepG2(2.2.15) cells by neutral red dye uptake assay. It is filed as functional.
Assay [2] concerns Hepatitis B virus. The assay can be described thus: Antiviral activity against Hepatitis B virus infected in human HepG2(2.2.15) cells assessed as reduction in viral DNA by Southern blotting. It counts as functional, organism-based.
Assay [3] has as its system Hepatitis B virus. Briefly: Antiviral activity against Hepatitis B virus infected in human Huh7 cells assessed as reduction in viral DNA after 4 days by Southern blotting. As to conditions: Huh-7, 96 h.
The test system of assay [4] is Huh-7. The assay can be described thus: Cytotoxicity against human HuH7 cells after 4 days by neutral red dye uptake assay. It is filed as functional. As to conditions: Huh-7, 96 h.
In assay [5] the test system is Hepatitis B virus. The assay can be described thus: Antiviral activity against Hepatitis B virus infected in human HepG2 cells assessed as reduction in viral DNA after 3 days by Southern blotting. It is filed as functional, organism-based. As to conditions: HepG2, 72 h.
Assay [6] relates to HepG2. Briefly: Cytotoxicity against human HepG2 cells after 3 days by neutral red dye uptake assay. As to conditions: HepG2, 72 h. It counts as functional.

In ChEMBL document CHEMBL1681755, “Antiviral agents 3. Discovery of a novel small molecule non-nucleoside inhibitor of hepatitis B virus (HBV)” (Bioorg Med Chem Lett, 2011) one finds CC50 and EC50 data, which are given here for 18 molecules.

For the molecule `CC(C)Oc1ccc2c(c1)C(=O)C(C1=C(O)C(=O)c3c(ccc4c3C=CC(C)(C)O4)C1=O)=C(C1=C(O)C(=O)c3c(ccc4c3C=CC(C)(C)O4)C1=O)C2=O`, the CC50 in assay [1] was greater than 300 µM. In addition, the EC50 in assay [2] came to 0.154 µM.

On to `Nc1ccn([C@@H]2CS[C@H](CO)O2)c(=O)n1` [LAMIVUDINE], for which the CC50 in assay [1] was 2130 µM; in assay [4], 0.1 µM; in assay [6], greater than 25 µM. Moreover, the EC50 in assay [3] was 0.1 µM; in assay [5], greater than 2.5 µM; in assay [2] it was 0.06 µM.

As for `CC1(C)CCc2c(ccc3c2C(=O)C(O)=C(C2=C(C4=C(O)C(=O)c5c(ccc6c5CCC(C)(C)O6)C4=O)C(=O)c4ccccc4C2=O)C3=O)O1`, in assay [1], the CC50 was found to be 1430 µM. Further, the EC50 in assay [2] was determined as 3.9 µM.

As to `COc1ccc2c(c1)C(=O)C(C1=C(O)C(=O)c3c(ccc4c3C=CC(C)(C)O4)C1=O)=C(C1=C(O)C(=O)c3c(ccc4c3C=CC(C)(C)O4)C1=O)C2=O`, in assay [1], half-maximal cytotoxicity (CC50) was put at 466 µM. Besides, the EC50 in assay [2] amounted to 1.5 µM.

`CC1(C)C=Cc2c(ccc3c2C(=O)C=C(O)C3=O)O1`: the results for the CC50 in assay [1], in assay [4] and in assay [6] were greater than 300 µM, greater than 25 µM and greater than 25 µM, respectively. The EC50 in assay [3] was 2.5 µM; in assay [5], 1.9 µM; in assay [2], 4.3 µM.

In assay [1], `COc1cccc2c1C(=O)C(C1=C(C3=C(O)C(=O)c4cccc(OC)c4C3=O)C(=O)c3ccccc3C1=O)=C(O)C2=O` gave a 50% cytotoxic concentration (CC50) greater than 300 µM. Also, in assay [2], the EC50 was greater than 10 µM.

In assay [1], `COc1ccc2c(c1)C(=O)C(C1=C(C3=C(O)C(=O)c4ccc(OC)cc4C3=O)C(=O)c3ccccc3C1=O)=C(O)C2=O` returned a CC50 of 295 µM. In addition, the EC50 in assay [2] came to 56 µM.

In the case of `CC(C)=CCC[C@]1(C)C=Cc2c(ccc3c2C(=O)C(O)=C(C2=C(C4=C(O)C(=O)c5c(ccc6c5C=C[C@@](C)(CCC=C(C)C)O6)C4=O)C(=O)c4ccccc4C2=O)C3=O)O1`, the CC50 in assay [1] worked out at 14 µM. Also, the EC50 in assay [2] is greater than 10 µM.

`CC1(C)C=Cc2c(ccc3c2C(=O)C(O)=C(C2=C(C4=C(O)C(=O)c5c(ccc6c5C=CC(C)(C)O6)C4=O)C(=O)c4c(ccc5c4CCC(C)(C)O5)C2=O)C3=O)O1` yielded a CC50 in assay [1] of 279 µM. Besides, the 50% effective concentration (EC50) in assay [2] was found to be 0.009 µM.

Consider `Nc1nc(O)c2ncn(CCC(CO)CO)c2n1` [PENCICLOVIR], for which it took 552 µM to reach half-maximal cytotoxicity in assay [1] (CC50). The EC50 in assay [2] stood at 3.4 µM.

The molecule `CC1(C)C=Cc2c(ccc3c2C(=O)C(O)=C(C2=C(C4=C(O)C(=O)c5c(ccc6c5C=CC(C)(C)O6)C4=O)C(=O)c4c(ccc5c4C=CC(C)(C)O5)C2=O)C3=O)O1` had a CC50 in assay [1] of 45 µM. In addition, in assay [2], the EC50 was 7.9 µM.

In assay [1], `CC(C)=CCC[C@]1(C)C=Cc2c(ccc3c2C(=O)C(O)=C(C2=C(C4=C(O)C(=O)c5c(ccc6c5C=C[C@@](C)(CCC=C(C)C)O6)C4=O)C(=O)c4c(ccc5c4C=C[C@@](C)(CCC=C(C)C)O5)C2=O)C3=O)O1` [CONOCURVONE] returned a 50% cytotoxic concentration (CC50) greater than 100 µM. Besides, the EC50 in assay [2] is greater than 10 µM.

Consider `COc1cc2c(cc1OC)C(=O)C(C1=C(C3=C(O)C(=O)c4cc(OC)c(OC)cc4C3=O)C(=O)c3ccccc3C1=O)=C(O)C2=O`, for which the CC50 in assay [1] was greater than 300 µM. In assay [2], the EC50 turned out to be 0.4 µM.

In assay [1], `COc1ccc2c(c1)C(=O)C(O)=C(C1=C(C3=C(O)C(=O)c4cc(OC)ccc4C3=O)C(=O)c3ccccc3C1=O)C2=O` gave a CC50 of 58 µM. Also, the EC50 in assay [2] is 0.05 µM.

In turn, `O=C1C(O)=C(C2=C(C3=C(O)C(=O)c4ccccc4C3=O)C(=O)c3ccccc3C2=O)C(=O)c2ccccc21` had a CC50 in assay [1] greater than 300 µM. Moreover, the half-maximal effective concentration (EC50) in assay [2] is greater than 10 µM.

For `CC1(C)CCc2c(ccc3c2C(=O)C(O)=C(C2=C(C4=C(O)C(=O)c5c(ccc6c5CCC(C)(C)O6)C4=O)C(=O)c4c(ccc5c4CCC(C)(C)O5)C2=O)C3=O)O1`, in assay [1], the midpoint of cytotoxicity, the CC50, lay at 44 µM. For the same molecule, in assay [2], the half-maximal effective concentration (EC50) was determined as 0.096 µM.

For the molecule `COc1ccc2c(c1)C(=O)C(O)=C(C1=C(C3=C(O)C(=O)c4cc(OC)ccc4C3=O)C(=O)c3c(ccc4c3CCC(C)(C)O4)C1=O)C2=O`, the CC50 in assay [1] was greater than 300 µM. Also, the EC50 in assay [2] came out at 0.66 µM.

As to `CC1(C)C=Cc2c(ccc3c2C(=O)C(O)=C(C2=C(C4=C(O)C(=O)c5c(ccc6c5C=CC(C)(C)O6)C4=O)C(=O)c4ccccc4C2=O)C3=O)O1`, the CC50 in assay [1] is 1370 µM. Further, in assay [2], the EC50 amounted to 10 µM.
